{"source": "patent EP4335865A1", "about": "“INTERACTION BETWEEN A GLYCOLIPID AND MAJOR CAPSID PROTEIN (VP1) OF SHEEP POLYOMAVIRUS AND, METHODS, KITS AND USES THEREOF” (Eberhard-Karls-Universität Tübingen, priority 2022, dated 2024)", "key": {"ShPyV VP1 [1]": {"tested_on": "ShPyV VP1", "experiment": "Saturation-transfer difference (STD) NMR in solution", "type": "binding, sheep polyomavirus (ShPyV)", "conditions": "1 mM Forssman pentaose and 1 mM 6'SL in presence of 20 µM ShPyV VP1, 298 K", "text": "To assess whether the interaction of ShPyV VP1 to Forssman pentaose (FP), the glycan portion of Forssman glycolipid, also occurs in a more physiologic setting (i.e., in solution), the inventors conducted a saturation-transfer difference (STD) NMR experiment. […] Thereby, the protein resonances remain invisible. 59,60 The inventors recorded the STD-NMR resonances from a sample comprising VP1 and the oligosaccharides Forssman pentaose and 6sialyllactose (6'SL) as ligands, for which the inventors also provide reference spectra (Fig. 2B-C). […] Since excitation transfer heavily falls off with distance, VP1 is expected to contact an extensive portion of FP during the binding event.\nAll nuclear magnetic resonance (NMR) data were collected in a Bruker AVIII-600 MHz spectrometer equipped with a TXI-z probe head at 298 K. The inventors performed the experiments using 3 mm NMR tubes. Samples were provided in 99 % D2O-PBS containing 20 mM KH2PO4/K2HPO4 (pH 7.4) and 150 mM NaCl. Initially, ^1H reference spectra of isolate oligosaccharides samples (4 mM Forssman pentaose and 2 mM 6'SL, respectively) were recorded. Subsequently, the ^1H resonances of a sample comprising 1 mM Forssman pentaose and 1 mM 6'SL in presence of 20 µM ShPyV VP1 were collected. From the same sample, the saturation difference transfer (STD) NMR experiment was performed. […]"}, "[2]": {"tested_on": "major capsid protein VP1 of sheep polyomavirus (ShPyV)", "experiment": "Glycan microarray screening of recombinant VP1", "type": "binding", "conditions": "broad spectrum glycan microarray of over 900 different carbohydrate structures", "text": "To identify potential attachment factors of sheep polyomavirus (ShPyV), the inventors subjected the recombinantly expressed major capsid protein VP1 to broad spectrum glycan microarray screening of over 900 different carbohydrate structures (Fig. 1A). […] Among the four strongest reliable signals in the glycan array, which are depicted in figure 1, two stem from glycans carrying α→6 linked sialic acids, which are 9-O-Acetyl-N-acetylneuraminic acid (Neu5,9Ac) and N-glycolyl-neuraminic acid (Neu5Gc).\nAmong all carbohydrates in the glycan array the Forssman glycolipid is the only probe that features the Forssman disaccharide GalNAcα→3GalNAcβ."}, "ShPyV VP1 [3]": {"tested_on": "ShPyV VP1", "experiment": "Derivatization of VP1 crystals with oligosaccharides and structure solution", "type": "binding, sheep polyomavirus (ShPyV)", "conditions": "crystals soaked with oligosaccharide (10 mM globo-N-tetraose)", "text": "The inventors presume that the Forssman disaccharide GalNAcα^5→3GalNAc^4, which promotes the hydrophobic interactions to VP1, is the main determinant for tropism. To corroborate this hypothesis, the inventors derivatized ShPyV VP1 crystals with globo-N-tetraose (Gb4), the glycan of the globoseries P antigen and molecular precursor of FP, and determined the structure of the complex (Table S2).\nAdditionally, the structural elucidation of the VP1-FP complex allows for the superposition of the epitopes of other aGalNAc antigens such as A (GalNAcα→3(Fucα→2)Gal-R) and Tn (GalNAcα→O-Ser/Thr) into the identified Forssman binding site.\nPurified ShPyV VP1 was concentrated to 3.5 mg/ml. Crystallization droplets were set up comprising 1 µl protein and 1 µl reservoir solution (150 mM KSCN and 20 % (w/v) PEG 3,350). The droplets were equilibrated against the 500 µl reservoir using the hanging drop vapor diffusion method at 20 °C. For ligand derivatization, VP1 crystals were soaked in crystallization solution supplemented with the respective oligosaccharides (10 mM FA pentaose, 10 mM globo-N-tetraose, 5 mM FA pentaose + 20 mM 3'SLN, and 5 mM pentaose + 20 mM 6'SLN), at 20 °C for half an hour. Prior to flash freezing, crystals were transferred to soaking solutions supplemented with 20 % (v/v) MPD for cryo-protection. X-ray diffraction experiments were performed using the Swiss Light Source (SLS) beamline X06DA at the PSI (Villigen, Switzerland). Data were collected at a wavelength of 1 Å and an excitation time and angle of 0.1 s and 0.1° per image, respectively. All carbohydrates were purchased from Carbosynth, UK.\nX-ray diffraction images were integrated and scaled using XDS software. For each data set, 2000-3000 reflections were reserved as a test set for structure validation. Phases were determined by molecular replacement using the native sheep polyomavirus VP1 structure as search model (PDB ID 6Y61) in PHASER (CCP4). […]"}, "[4]": {"tested_on": "FORS+ cell binding by HPA", "experiment": "Inhibition assay of HPA binding to ovine blood cells", "type": "cell-based, sheep", "conditions": "exceeding amounts of trisaccharide inhibitor (Fig. 5C)", "protocol": "The inventors also examine the engagement of FORS- human erythrocytes by ShPyV VP1 and compare the results to HPA, which is a commonly used indicator for aberrant glycosylation in cancerogenesis. […] In contrast, FORS+ cell binding by HPA is inhibited by exceeding amounts of both F-tri and A-tri (Fig. 5C).\nErythrocytes from defibrinated blood were diluted into FACS buffer (1× PBS + 2 % FCS) to a density of 10×10^6 cells / mL. Samples of 1×10^6 cells were incubated with labeled protein at room temperature for 30 minutes with occasional shaking. Samples were then directly transferred to the flow cytometer (LSR II, BD Biosciences). Singlet cells were gated and the fluorescent population was captured at […]. M1/87-FITC (Santa Cruz Biotechnology) and HPA Alexa Fluor™ 488 conjugate (Invitrogen), respectively were used as references. Defibrinated sheep and bovine blood were purchased from TCS Biosciences Ltd and BioTrading Benelux B.V., respectively."}, "ShPyV VP1 [5]": {"biological_target": "ShPyV VP1", "experiment": "Crystallographic affinity determination (glycan dilution series in VP1 crystals)", "type": "binding, sheep polyomavirus (ShPyV)", "conditions": "approximate; integrated FP electron density vs concentration, Michaelis-Menten approach; 10 mM down to 0.0195 mM FP; read-out: dissociation constant between VP1 and FP (crystallographic, Kdc)", "text": "Due to the costliness of Forssman glycans, conventional biophysical affinity determination techniques were not applied. To still establish an approximate dissociation constant value, the inventors derivatize isomorphous ShPyV VP1 crystals with serially diluted Forssman pentaose (FP) solution and collect the diffraction data.\nTo approximate the affinity towards FA pentaose (FP) the inventors prepared a glycan dilution series in VP1 crystals, an approach that was successfully utilized in the past. [16,23]_VP1 crystals were grown as described above. The reference soaking solution (10 mM FP in 150 mM KSCN, 20 % (w/v) PEG 3,350 and 20 % (v/v) MPD) was diluted using 1:2 steps down to a final concentration of 0.0195 mM. Distinct crystals and equal soaking times were used for the parallel derivatization with FP at the different concentrations. Data collection was performed as described above. For processing, the unit cell constants of all data sets were treated as isomorphous. All diffraction intensities were scaled against the 10 mM FP reference data set using scaleit. A single structure solution was sufficient for all data sets. A VP1 model lacking all water and carbohydrate atoms, and a control tripeptide (AA 143-145) in all chains, was used for simulated annealing refinement (Phenix). […]"}, "[6]": {"biological_target": "human Gal-9 carbohydrate recognition domain (CRD) (Homo sapiens, UniProt O00182)", "sequence (O00182 1-148 limits assumed)": "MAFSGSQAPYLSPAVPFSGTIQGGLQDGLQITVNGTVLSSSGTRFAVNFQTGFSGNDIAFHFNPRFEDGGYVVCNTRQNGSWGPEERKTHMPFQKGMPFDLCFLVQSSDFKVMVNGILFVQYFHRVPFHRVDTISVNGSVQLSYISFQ", "conditions": "carbohydrate library screening, reference 62; cited from earlier work"}}, "data": [{"compound": "CC(=O)N[C@H]1[C@H]([C@H](O)[C@H](O)CO)O[C@@](OC[C@H]2O[C@@H](O[C@H]3[C@H](O)[C@@H](O)[C@H](O)O[C@@H]3CO)[C@H](O)[C@@H](O)[C@H]2O)(C(=O)O)C[C@@H]1O", "note": "[6'SL, 6'sialyllactose]", "values": [{"measurement": "STD-NMR binding to VP1", "setting": "ShPyV VP1 [1]", "result": "signal of a third methyl group in the STD-NMR spectrum manifests as the only transferred resonance"}]}, {"compound": "CC(=O)N[C@H]1[C@H]([C@H](O)[C@H](O)CO)O[C@](OC[C@H]2O[C@@H](O[C@H]3[C@H](O)[C@@H](NC(C)=O)C(O)O[C@@H]3CO)[C@H](O)[C@@H](O)[C@H]2O)(C(=O)O)C[C@@H]1O", "note": "(stereo partly shown) [6'sialyllactosamine]", "values": [{"measurement": "glycan array response (binding to VP1)", "setting": "[2]", "result": "relatively weak"}]}, {"compound": "CC(=O)N[C@H]1[C@@H](O[C@H]2[C@@H](O)[C@@H](CO)O[C@@H](O)[C@@H]2O[C@@H]2O[C@@H](C)[C@@H](O)[C@@H](O)[C@@H]2O)O[C@H](CO)[C@H](O)[C@@H]1O", "note": "[A antigen trisaccharide]", "values": [{"measurement": "ligand electron density / binding in derivatized VP1 crystals", "setting": "ShPyV VP1 [3]", "result": "unliganded VP1 pentamers"}, {"measurement": "inhibition of FORS+ cell binding by HPA", "setting": "[4]", "result": "inhibited"}]}, {"compound": "CC(=O)N[C@H]1[C@@H](O[C@H]2[C@@H](O)[C@@H](CO)O[C@@H](O[C@H]3[C@@H](O)[C@@H](CO)O[C@H](O[C@@H]4[C@H](O)[C@@H](O)[C@H](O[C@H]5[C@H](O)[C@@H](O)C(O)O[C@@H]5CO)O[C@@H]4CO)[C@@H]3O)[C@@H]2NC(C)=O)O[C@H](CO)[C@H](O)[C@@H]1O", "note": "(stereo partly shown) [FP, GalNAcα^5→3GalNAcβ^4→3Galα^3→4Galβ^2→4Glc^1]", "values": [{"measurement": "STD-NMR binding to VP1", "setting": "ShPyV VP1 [1]", "result": "binding of FP to VP1"}, {"measurement": "Kd", "setting": "ShPyV VP1 [5]", "result": "~38.2", "unit": "µM"}, {"measurement": "Kd", "setting": "[6]", "result": 0.3, "unit": "µM"}]}, {"compound": "CC(=O)N[C@H]1C(O)O[C@H](CO[C@@H]2O[C@H](CO)[C@H](O)[C@H](O)[C@H]2O)[C@H](O)[C@@H]1O", "note": "(stereo partly shown) [Galβ-6GalNAc disaccharide, Galβ-6GalNAc]", "values": [{"measurement": "glycan array response (binding to VP1)", "setting": "[2]", "result": "relatively strong signal"}]}, {"compound": "CC(=O)NC1C(OC2C(O)C(CO)OC(OC3C(CO)OC(OC4C(CO)OC(O)C(O)C4O)C(O)C3O)C2O)OC(CO)C(O)C1O", "note": "(stereo not shown) [Gb4, globo-N-tetraose]", "values": [{"measurement": "ligand electron density / binding in derivatized VP1 crystals", "setting": "ShPyV VP1 [3]", "result": "negligible binding affinity"}]}, {"compound": "GD3 tetraose", "values": [{"measurement": "glycan array response (binding to VP1)", "setting": "[2]", "result": "relatively weak"}]}, {"compound": "GM1 pentaose", "values": [{"measurement": "glycan array response (binding to VP1)", "setting": "[2]", "result": "relatively weak"}]}, {"compound": "GTic oligosaccharide", "values": [{"measurement": "glycan array response (binding to VP1)", "setting": "[2]", "result": "relatively weak"}]}, {"compound": "GalNAcα1→3GalNAcβ1→3Galα1→4Galβ1→4Glcβ1->1Cer [Forssman glycolipid]", "values": [{"measurement": "glycan array response (binding to VP1)", "setting": "[2]", "result": "surprisingly strong response"}]}, {"compound": "GalNAcα→3(Fucα→2)Gal-R [A antigen]", "values": [{"measurement": "glycan array response (binding to VP1)", "setting": "[2]", "result": "no significant binding"}]}, {"compound": "GalNAcα→O-Ser/Thr [Tn antigen]", "values": [{"measurement": "glycan array response (binding to VP1)", "setting": "[2]", "result": "no significant binding"}]}, {"compound": "Galβ→3-Tn [T antigen]", "values": [{"measurement": "ligand electron density / binding in derivatized VP1 crystals", "setting": "ShPyV VP1 [3]", "result": "unliganded VP1 pentamers"}]}]}
